Experimental findings from patent publication US20220000860A1, “COMPOUNDS, COMPOSITIONS, AND METHODS FOR TREATING HUMAN IMMUNODEFICIENCY VIRUS” (OYAGEN, INC., priority 2017, published 2022) are described below.

The target in one data set is T1, HIV-1 protease (Human immunodeficiency virus type 1 group M subtype B, UniProt P12497).
T1 construct: A 50 μM stock HIV-1 protease (received from Sook-kyung Lee (UNC)); gift from Sook-kyung Lee (UNC)
The experiment in a line: protease assay (Abz-HIV Protease Substrate FRET). The data set is classed as biochemical. On the procedure: (§1) For the assays listed in Table I, the integrase assay was conducted using the XpressBio HIV-1 Integrase Assay Kit according to the manufacture's protocol. The protease assay was conducted with the Anthranilyl (Abz)-HIV Protease Substrate (Bachem H-2992), a hexapeptide FRET substrate derived from the p24/p15 cleavage site of the viral gag-pol poly-protein, which allows the screening of potential HIV protease inhibitors. 1 mM Abz-Substrate was diluted with Assay Buffer to a working stock of 20 μM. A 50 μM stock HIV-1 protease (received from Sook-kyung Lee (UNC)) was diluted with Assay Buffer (50 mM HEPES, pH 6.8, 150 mM NaCl, and 1% DMSO) to a working stock of 100 nM. 2 μl 100 nM HIV-1 Protease along with 2 uL 20 μM Abz Substrate was added into each well and incubated at room temperature (avoiding light) for 1 hour before being read on an Envision plate reader (Perkin Elmer) excitation at 280 nm, emission at >435 nm. The reverse transcriptase assay utilized purified recombinant HIV (pNL4-3) heterodimeric (p66/p51) Reverse Transcriptase (RT) that was purchased from a commercially available source. The assay was performed in 96-well filter plate, where RT activity was determined by the incorporation of radiolabeled deoxyribonucleotides into the newly synthesized DNA strand. The RT reaction mixture contained in vitro transcribed viral RNA derived from the HIV-1NL4-3 5′-LTR region (position 454 to 652) and primer that is complementary to the primer binding site (PBS, nucleotide residues nucleotides 636 to 652), radiolabeled deoxyribonucleotide, dNTPs and reverse transcriptase. Briefly, the reaction was carried out in a volume of 50 μl containing 50 mM Tris HCl, pH 7.8, 50 mM KCl, 5 mM MgCl2, 1 mM DTT, 50 μM each of dATP, dCTP, dGTP, 50 nM dTTP, 1 μCi of [^3H] dTTP (70-90 Ci/mM) and 5 nM template/primer. The reaction was initiated by the addition of 10 nM RT. For compound screening, serially diluted test articles were added to the reaction followed by the addition of RT. The reaction mixture was incubated at 37° C. for 1 h, and then quenched by the addition of ice-cold trichloroacetic acid (TCA) to the final concentration of 10%. The plate was incubated at 4° C. for 1 h to precipitate the synthesized DNA, then rinsed 3-times with 10% TCA and 1 time with 70% ethanol. After addition of 25 μl scintillation fluid to completely dried wells, radioactivity is counted by MicroBeta scintillation counter. The reduction of radioactivity represents the potency of compound inhibition.

Data set [1] addresses T2, recombinant HIV (pNL4-3) heterodimeric (p66/p51) Reverse Transcriptase (Human immunodeficiency virus type 1 group M subtype B, UniProt P12497).
T2 construct: purified recombinant HIV (pNL4-3) heterodimeric (p66/p51) Reverse Transcriptase (RT); purchased
The experiment in a line: reverse transcriptase assay. In kind it is biochemical. On the procedure:
as §1

The next data set deals with IIIB (Subtype B). The experiment in a line: PBMC Acute Infection, IIIB. In kind it is cell-based, HIV. The following applies: Human immunodeficiency virus 1, isolate IIIB, subtype B, RT activity readout; for EC50: read-out: EC50; for EC90: read-out: EC90. Here is the method: (§2) PHA-stimulated cells from at least two normal donors were pooled (i.e. mixed together), diluted in fresh medium to a final concentration of 1×10^6 cells/mL, and plated in the interior wells of a 96-well round bottom microplate at 50 μL/well (5×10^4 cells/well). Pooling of mononuclear cells from more than one donor was used to minimize the variability observed between individual donors in quantitative and qualitative differences in HIV infection and overall response to the PHA and IL-2 of primary lymphocyte populations. Each plate contained virus control wells (cells plus virus) and experimental wells (drug plus cells plus virus) of either 00KE_KER2008 (Subtype A), IIIB (Subtype B), or 98US_MSC5016 (Subtype C). Test drug dilutions were prepared at a 2×concentration and 100 μL of each concentration was placed in appropriate wells. Fifty μL of a predetermined dilution of virus stock was placed in each test well (final MOI≅0.1). After this period, cell-free supernatant samples were collected for analysis of reverse transcriptase (RT) activity with an RT assay. […] In the Table below SI50=CC50/EC50 and SI90=CC90/EC90.

The subject of the next data set is 00KE_KER2008 (Subtype A). The experiment in a line: PBMC Acute Infection, 00KE_KER2008. In kind it is cell-based, HIV. The note with it: Human immunodeficiency virus 1, PBMC, isolate 00KE-KER2008, subtype A, RT activity readout; for EC50: read-out: EC50; for EC90: read-out: EC90. On the procedure: as §2
Data set [2] has as its system Vif-dependent APOBEC3G degradation. The experiment in a line: Vif-Dependent APOBEC3G Degradation Assay. The data set is classed as cell-based, HIV. On the procedure:
APOBEC3G-V5-mCherry was stably expressed from the pIRES-P vector in 293T cells under puromycin selection. Fifty ng of plasmid expressing Vif-HA (accession no. AB573087) was transfected into the cells in 384-well format with Turbofect on a liquid handling robot. Four hours after transfection the compounds were added to cells in a range from 0-15 μM. Twenty-four hours after compound addition mCherry fluorescence was read on a BioTek Synergy4 plate reader (ex=587 nm, em=610 nm). Relative fluorescence units (RFU) from compound treated wells were quantified using thresholds set by the −Vif (positive control) and +Vif (negative control).

For a further data set, the system named is 98US_MSC5016 (Subtype C). The experiment in a line: PBMC Acute Infection, 98US_MSC5016. The data set is classed as cell-based, HIV. The note with it: Human immunodeficiency virus 1, PBMC, isolate 98US_MSC5016, subtype C, RT activity readout; for EC50: read-out: EC50; for EC90: read-out: EC90. On the procedure: as §2
In the next data set the target is T3, HIV-1 Integrase (Human immunodeficiency virus type 1 group M subtype B, UniProt P12497).
T3 construct: the integrase assay was conducted using the XpressBio HIV-1 Integrase Assay Kit; purchased XpressBio
The experiment in a line: integrase assay (XpressBio HIV-1 Integrase Assay Kit). In kind it is biochemical. Here is the method:
as §1

Data set [3] can be described thus: PBMC Acute Infection, cytotoxicity (CC50/CC90). The data set is classed as cell-based. The note with it: human. On the procedure: as §2
Where [4] appears, read: Human immunodeficiency virus 1, HEK-293T, 24 h, read-out: EC50, A3G Degradation Assay.
Setting [5] is: Human immunodeficiency virus 1, read-out: A3G degradation at.
The mark [6] stands for this setting: row of isolate 00KE-KER2008, subtype A.
[7] abbreviates: PHA-stimulated PBMCs pooled from at least two normal donors, row of isolate 00KE-KER2008, subtype A.

Like-named read-outs stand apart in the source and are kept apart here.

Consider `CCc1c2c(nc3ccc(O)cc13)-c1cc3c(c(=O)n1C2)CNC(=O)[C@]3(O)CC` [SN38-L, (S)-4,11-Diethyl-4,9-dihydroxy-1,2-dihydroquinolino[2′,3′:3,4]pyrrolo[1,2-b][2,7]naphthyridine-3,14(4H,12H)-dione], for which the IC50 (against HIV-1 protease; in data set [1]; against HIV-1 Integrase) was > 100000 nM in each case. Besides, the “activity against HIV protease (result in words)” value at HIV-1 protease is “inactive”. For the same molecule, the “activity against HIV reverse transcriptase (result in words)” value in data set [1] is “inactive”. Moreover, the EC50 in the data set with IIIB (Subtype B) amounted to 10 nM; in the data set with 00KE_KER2008 (Subtype A), 4 nM; in data set [2] (setting [4]), 84 nM; in data set [2] (setting [5]), 99 nM; in the data set on 98US_MSC5016 (Subtype C) it was 4 nM. In addition, the 90% effect concentration (EC90) (usually the point of the concentration-response curve where the effect stands at 90%) came out at 28 nM with IIIB (Subtype B), 15 nM with 00KE_KER2008 (Subtype A) and 16 nM with 98US_MSC5016 (Subtype C). The “Vif-dependent A3G degradation (result in words)” value in data set [2] was “block”. The “activity against HIV integrase (result in words)” value on HIV-1 Integrase was “inactive”. The 50% cytotoxic concentration (CC50) (as a rule, the concentration giving 50% cytotoxicity) in data set [3] (setting [6]) was determined as 1180 nM; in data set [3] (row of isolate 98US_MSC5016, subtype C), 1180 nM; in data set [3] (row of isolate IIIB, subtype B), 5790 nM. The molecule further yielded a CC90 in data set [3] (setting [6]) of 27900 nM.
Consider `CCc1c2c(nc3ccc(N)cc13)-c1cc3c(c(=O)n1C2)CNC(=O)[C@]3(O)CC` [Compound O5-SN, (S)-9-Amino-4,11-diethyl-4-hydroxy-1,2-dihydroquinolino[2′,3′:3,4]pyrrolo[1,2-b][2,7]naphthyridine-3,14(4H,12H)-dione], for which the 50% inhibitory concentration (IC50) (on HIV-1 protease; in data set [1]; against HIV-1 Integrase) was > 100000 nM throughout. For the same molecule, the “activity against HIV protease (result in words)” value at HIV-1 protease was “inactive”. In addition, the “activity against HIV reverse transcriptase (result in words)” value in data set [1] is “inactive”. In addition, the EC50 with IIIB (Subtype B) was found to be 8 nM; in the data set with 00KE_KER2008 (Subtype A), 6 nM; in data set [2] (setting [4]), 99 nM; in data set [2] (setting [5]) it was 84 nM; in the data set on 98US_MSC5016 (Subtype C), 6 nM. Besides, the results for the EC90 with IIIB (Subtype B), in the data set with 00KE_KER2008 (Subtype A) and with 98US_MSC5016 (Subtype C) were 25 nM, 18 nM and 20 nM, respectively. Further, the “Vif-dependent A3G degradation (result in words)” value in data set [2] is given as “block”. Besides, the “activity against HIV integrase (result in words)” value at HIV-1 Integrase was “inactive”. Further, the CC50 in data set [3] (setting [7]) is 2530 nM; in data set [3] (PHA-stimulated PBMCs pooled from at least two normal donors, row of isolate 98US_MSC5016, subtype C) it was 2530 nM; in data set [3] (PHA-stimulated PBMCs pooled from at least two normal donors, row of isolate IIIB, subtype B), 6290 nM. Besides, the CC90 in data set [3] (setting [7]) is > 100000 nM.
